Assay results as given in patent US20090312406A1, “COUMARIN COMPOUNDS AND THEIR USE FOR TREATING VIRAL INFECTION” (priority 2008, published 2009).

system: Influenza A/WSN/33 (H1N1) virus; assay: In vitro anti-influenza virus assay (neutralization test), cytopathic effect on MDCK cells; assay type: cell-based; conditions: MDCK cells, 72 h, lower bound (10 nM), upper in μM, read-out: IC50 (concentration reducing virus-induced cytopathic effect by 50%)
Procedure: Anti-influenza activities of the coumarin compounds were evaluated by measuring the ability of a test compound to inhibit the cytopathic effect induced by an influenza virus on MDCK cells. The 96-well tissue culture plates were seeded with 200 μL of MDCK cells at a concentration of 1.1×10^5 cells/mL in DMEM with 10% fetal bovine serum (FBS). The plates were incubated for 24-30 h at 37° C. and were used at about 90% confluency. Influenza A/WSN/33 (H1N1) virus (100 TCID50) was added to the cells and incubated at 35° C. for 1 h. After adsorption, the infected cell plates were overlaid with 50 μL of DMEM plus 2% FBS and a test compound with different concentrations. The plate was incubated at 35° C. for 72 h. At the end of incubation, the plates were fixed by the addition of 100 μL of 4% formaldehyde for 1 h at room temperature. After the removal of formaldehyde, the plates were stained with 0.1% crystal violet for 15 min at room temperature. The plates were washed and dried, and the density of the well was measured at 570 nm. The concentration required for a test compound to reduce the virus-induced cytopathic effect (CPE) by 50% relative to the virus control was expressed as IC50.
Compounds 1 and 95 were also tested on various influenza virus strains. Amantadine or Relenza was also tested for comparison. IC50 is defined as the concentration required for a test compound to reduce the virus-induced cytopathic effect (CPE) by 50% relative to the virus control.

Compound | IC50
Cc1cc(=O)oc2c1ccc1oc(C(=O)c3ccc(F)c(F)c3)c(-c3ccccc3)c12 [Compound 60] | 10 to 999 nM
Cc1cc(=O)oc2c1ccc1oc(C(=O)c3nccs3)c(-c3ccccc3)c12 [Compound 107] | 10 to 999 nM
Cc1cc(=O)oc2c1ccc1oc(C(=O)c3cccc(OCCCCO)c3)c(-c3ccccc3)c12 [Compound 186] | 10 to 999 nM
C=CCOc1cccc(C(=O)c2oc3ccc4c(C)cc(=O)oc4c3c2-c2ccccc2)c1 [Compound 76] | 10 to 999 nM
Cc1ccsc1C(=O)c1oc2ccc3c(C)cc(=O)oc3c2c1-c1ccccc1 [Compound 100] | 10 to 999 nM
Cc1cc(=O)oc2c1ccc1oc(C(=O)c3ccccc3)c(-c3ccc([N+](=O)[O-])cc3)c12 [Compound 145] | 10 to 999 nM
Cc1ccc(-c2c(C(=O)c3ccccc3)oc3ccc4c(C)cc(=O)oc4c23)cc1 [Compound 142] | 10 to 999 nM
Cc1c(C)c2ccc3oc(C(=O)c4ccccc4)c(-c4ccccc4)c3c2oc1=O [Compound 6] | 10 to 999 nM
Cc1cc(=O)oc2c1ccc1oc(C(=O)c3ccccc3Cl)c(-c3ccccc3)c12 [Compound 47] | 10 to 999 nM
CCc1cc(=O)oc2c1ccc1oc(C(=O)c3ccccc3)c(-c3ccccc3)c12 [Compound 9] | 10 to 999 nM
COc1ccccc1C(=O)c1oc2ccc3c(C)cc(=O)oc3c2c1-c1ccccc1 [Compound 30] | 10 to 999 nM
Cc1cc(=O)oc2c1ccc1oc(C(=S)c3ccccc3)c(-c3ccccc3)c12 [Compound 166] | 10 to 999 nM
CCCc1cc(=O)oc2c1ccc1oc(C(=O)c3ccccc3)c(-c3ccccc3)c12 [Compound 14] | 10 to 999 nM
CCCCCCc1c(C(=O)c2ccccc2)oc2ccc3c(C)cc(=O)oc3c12 [Compound 157] | 10 to 999 nM
CCCCOc1cccc(C(=O)c2oc3ccc4c(C)cc(=O)oc4c3c2-c2ccccc2)c1 [Compound 70] | 10 to 999 nM
Cc1cc(=O)oc2c1ccc1oc(C(=O)c3ccc(Br)s3)c(-c3ccccc3)c12 [Compound 98] | 10 to 999 nM
Cc1cc(=O)oc2c1ccc1oc(C(=O)c3cccc(OCCCCCl)c3)c(-c3ccccc3)c12 [Compound 75] | 10 to 999 nM
Cc1ccc(C(=O)c2oc3ccc4c(C)cc(=O)oc4c3c2-c2ccccc2)cc1 [Compound 41] | 10 to 999 nM

Compound | IC50
O=C(c1ccccc1)c1oc2ccc3c4c(c(=O)oc3c2c1-c1ccccc1)CCC4 [Compound 20] | 10 to 999 nM
Cc1cc(=O)oc2c1ccc1oc(C(=O)c3ccccc3)c(-c3cccc4ccccc34)c12 [Compound 206] | 10 to 999 nM
Cc1cc(=O)oc2c1ccc1oc(C(=O)c3ccccc3)c(-c3cccc([N+](=O)[O-])c3)c12 [Compound 144] | 10 to 999 nM
Cc1cc(=O)oc2c1ccc1oc(C(=O)c3cccs3)c(-c3cccc(Br)c3)c12 [Compound 259] | 10 to 999 nM
C=CCCCCOc1cccc(C(=O)c2oc3ccc4c(C)cc(=O)oc4c3c2-c2ccccc2)c1 [Compound 79] | 10 to 999 nM
COc1cccc(C(=O)c2oc3ccc4c(C)cc(=O)oc4c3c2-c2ccccc2F)c1 [Compound 245] | 10 to 999 nM
Cc1cc(=O)oc2c1ccc1oc(C(=O)c3ccccc3)c(-c3cc(F)cc(F)c3)c12 [Compound 148] | 10 to 999 nM
Cc1cc(=O)oc2c1ccc1oc(Cc3ccccc3)c(-c3ccccc3)c12 [Compound 173] | 10 to 999 nM
Cc1cc(=O)oc2c1ccc1oc(C(=O)c3ccc4ccccc4c3)c(-c3ccccc3)c12 [Compound 54] | 10 to 999 nM
Cc1cc(=O)oc2c1ccc1oc(C(=O)c3ccccc3)c(-c3cc(Br)cc(Br)c3)c12 [Compound 150] | 10 to 999 nM
Cc1cccc(C(=O)c2oc3ccc4c(C)cc(=O)oc4c3c2-c2ccccc2)c1 [Compound 40] | 10 to 999 nM
Cc1cc(=O)oc2c1ccc1oc(C(=O)c3ccccc3)c(-c3ccc(Cl)cc3)c12 [Compound 137] | 10 to 999 nM
Cc1cc(=O)oc2c1ccc1oc(C(=O)c3ccc(F)cc3F)c(-c3ccccc3)c12 [Compound 59] | 10 to 999 nM
CCCCCCOc1cccc(C(=O)c2oc3ccc4c(C)cc(=O)oc4c3c2-c2ccccc2)c1 [Compound 72] | 10 to 999 nM
CCCCOc1cccc(C(=O)c2oc3ccc4c(C)cc(=O)oc4c3c2-c2cccc(Br)c2)c1 [Compound 262] | 10 to 999 nM
C=CCCCOc1cccc(C(=O)c2oc3ccc4c(C)cc(=O)oc4c3c2-c2ccccc2)c1 [Compound 78] | 10 to 999 nM
COc1cccc(C(=O)c2oc3ccc4c(C)cc(=O)oc4c3c2-c2ccc(Br)cc2)c1 [Compound 252] | 10 to 999 nM
Cc1cc(=O)oc2c1ccc1oc(C(O)c3ccccc3)c(-c3cccc(C#N)c3)c12 (stereo not drawn) [Compound 234] | 10 to 999 nM

same assay, conditions: MDCK cells, 72 h, ranges given, read-out: IC50 (concentration reducing virus-induced cytopathic effect by 50%)

Compound | IC50
Cc1cc(=O)oc2c1ccc1oc(C(=O)c3cccc(OCCCCCCO[Si](C)(C)C(C)(C)C)c3)c(-c3ccccc3)c12 [Compound 193] | 1000 to 5900 nM
CCCCCCCCOc1cccc(C(=O)c2oc3ccc4c(C)cc(=O)oc4c3c2-c2ccccc2)c1 [Compound 243] | 6000 to 25000 nM
Cc1cc(=O)oc2c1ccc1oc(C(=O)c3cccc(OCCCCI)c3)c(-c3ccccc3)c12 [Compound 236] | 1000 to 5900 nM
Cc1cc(=O)oc2c1ccc1oc(/C(=N/O)c3ccccc3)c(-c3ccccc3)c12 [Compound 171] | 1000 to 5900 nM
Cc1cc(=O)oc2c1ccc1oc(C(=O)c3cccc(OCCCCN4CCOCC4)c3)c(-c3ccccc3)c12 [Compound 82] | 1000 to 5900 nM
Cc1cc(=O)oc2c1ccc1oc(C(=O)c3cccc(OCCN4CCOCC4)c3)c(-c3ccccc3)c12 [Compound 80] | 1000 to 5900 nM
O=Cc1cc(=O)oc2c1ccc1oc(C(=O)c3ccccc3)c(-c3ccccc3)c12 [Compound 10] | 1000 to 5900 nM
Cc1cc(=O)oc2c1ccc1oc(C(=O)c3cccc(OCCN[C@@]45C[C@@H]6C[C@@H](C[C@@](O)(C6)C4)C5)c3)c(-c3ccccc3)c12 [Compound 183] | 6000 to 25000 nM
Cc1cc(=O)oc2c1ccc1oc(C(=O)c3ccc(Cl)c(Cl)c3)c(-c3ccccc3)c12 [Compound 58] | 1000 to 5900 nM
Cc1cc(=O)oc2c1ccc1oc(C(=O)c3cccc(OCCN(C)C)c3)c(-c3ccccc3)c12 [Compound 86] | 6000 to 25000 nM
CC(=O)OCC1OC(OCCCOc2cccc(C(=O)c3oc4ccc5c(C)cc(=O)oc5c4c3-c3ccccc3)c2)C(OC(C)=O)C(OC(C)=O)C1OC(C)=O (stereo not drawn) [Compound 196] | 6000 to 25000 nM
Cc1cc(=O)oc2c1ccc1oc(C(=O)c3cccc(OC(=O)C4CC4)c3)c(-c3ccccc3)c12 [Compound 181] | 1000 to 5900 nM
Cc1cc(=O)oc2c1ccc1oc(C(=O)c3cccc(OCCCOC4OC(CO)C(O)C(O)C4O)c3)c(-c3ccccc3)c12 (stereo not drawn) [Compound 197] | 6000 to 25000 nM
CCCCCOc1cccc(C(=O)c2oc3ccc4c(C)cc(=O)oc4c3c2-c2cccc(Br)c2)c1 [Compound 263] | 1000 to 5900 nM
CCCCCC#CC(=O)Oc1cccc(C(=O)c2oc3ccc4c(C)cc(=O)oc4c3c2-c2ccccc2)c1 [Compound 203] | 1000 to 5900 nM
Cc1cc(=O)oc2c1ccc1oc(C(=O)c3ccccc3)c(-c3cc(Cl)cc(Cl)c3)c12 [Compound 149] | 1000 to 5900 nM
Cc1cc(=O)oc2c1ccc1oc(C(=O)c3cccc(OP(=O)(O)O)c3)c(-c3ccccc3)c12 [Compound 249] | 1000 to 5900 nM

Compound | IC50
Cc1cc(=O)oc2c1ccc1[nH]c3ccccc3c12 [Compound 231] | 6000 to 25000 nM
Cc1cc2oc(C(=O)c3ccccc3)c(-c3ccccc3)c2c2oc(=O)ccc12 [Compound 4] | 6000 to 25000 nM
Cc1cc(=O)oc2c1ccc1oc(C(=O)c3ccccc3)c(-c3cccc(Cl)c3)c12 [Compound 136] | 1000 to 5900 nM
Cc1cc(=O)oc2c1ccc1oc(C(=O)c3cccc([N+](=O)[O-])c3)c(-c3ccccc3)c12 [Compound 66] | 1000 to 5900 nM
Cc1cc(=O)oc2c1ccc1oc(C(=O)c3cccc(OCCCN4CCOCC4)c3)c(-c3ccccc3)c12 [Compound 81] | 1000 to 5900 nM
Cc1cc(=O)oc2c1ccc1oc(C(O)c3ccccc3)cc12 (stereo not drawn) [Compound 226] | 1000 to 5900 nM
O=C(c1ccccc1)c1oc2ccc3ccc(=O)oc3c2c1-c1ccccc1 [Compound 2] | 6000 to 25000 nM
Cc1cc(=O)oc2c1ccc1oc(C(=O)c3ccc([N+](=O)[O-])cc3)c(-c3ccccc3)c12 [Compound 51] | 6000 to 25000 nM
C#CCCC(=O)Oc1cccc(C(=O)c2oc3ccc4c(C)cc(=O)oc4c3c2-c2ccccc2)c1 [Compound 202] | 1000 to 5900 nM
Cc1cc(=O)oc2c1ccc1oc(C(=O)c3ccccc3)c(C3CCCCC3)c12 [Compound 165] | 1000 to 5900 nM
Cc1cc(=O)oc2c1ccc1oc(C(=O)c3cc(F)ccc3F)c(-c3ccc(F)cc3)c12 [Compound 221] | 1000 to 5900 nM
Cc1cc2ccc3oc(C(=O)c4ccccc4)c(-c4ccccc4)c3c2oc1=O [Compound 3] | 1000 to 5900 nM
Cc1cc(=O)oc2c1ccc1oc(C(=O)O)c(-c3ccccc3)c12 [Compound 205] | 1000 to 5900 nM
Cc1cc(=O)oc2c1ccc1oc(C(=O)c3ccccc3)c(/C=C/c3ccccc3)c12 [Compound 161] | 1000 to 5900 nM
Cc1cc(=O)oc2c1ccc1oc(C(=O)c3cccc(OCCCN(C)C)c3)c(-c3ccccc3)c12 [Compound 87] | 6000 to 25000 nM
O=C(c1ccccc1)c1oc2ccc3c4ccccc4c(=O)oc3c2c1-c1ccccc1 [Compound 22] | 6000 to 25000 nM
